System: male-sterile F1 transgenic plants (CKX1)
Assay: Fertility restoration: tassel fertility rating after TDZ and kinetin applications
Assay type: in vivo, corn
Design: key: 0: No or very little floral development; x: Advanced floral development observed in some areas of tassels; xx: Increased areas of advanced floral development and anthersis observed in some flowers
Conditions: 0.25% Sylgard 309
Procedure: Two commercially registered chemicals were tested in fertility restoration experiments. Kinetin is a synthetic cytokinin that is not oxidized by CKX1 and TDZ is a known cytokinin oxidase inhibitor. The F1 seeds from the crosses between wild-type plants and several male-sterile R0 events were planted. NPTII ELISA positive plants were identified as the male-sterile transgenic plants among F1 segregating populations by enzyme-linked immunosorbent assays (ELISA, Example 3) performed on leaf samples collected at the seedling stage of all plants. Identified plants were treated at the V4, V7 and V10 stages. The application rates for each plant were 0, 10, 20, 30, and 100 mg of kinetin with or without 3 mg of TDZ in the presence of 0.25% of Sylgard 309 surfactant (Willbur-Ellis, Fresno, Calif.). One to three plants were tested at a particular rate combination.
The NPTII ELISA tests were thus used to select male sterile F1 transgenic plants for chemical treatments. […] These chemical application conditions were not sufficient to produce fully fertile plants. The degree of floral development restoration varied and was limited to older tissues of the tassel. […] Table 3 details tassel fertility rating of the restoration study.
Two to three transgenic F1 plants were used in each treatment group. Plants were either treated repeatedly in three different rates at three V4, V7 and V10 developmental stages or once in a higher rate at V7 developmental stage. Rates are indicated by mg/plant of TDZ and kinetin, respectively, in the presence of 0.25% of Sylgard 309 surfactant. The fertility rating was based on the visual observation. 0, No or very little floral development; x, Advanced floral development observed in some areas of tassels; xx, Increased areas of advanced floral development and anthersis observed in some flowers.

Measured: tassel fertility rating

c1coc(CNc2ncnc3[nH]cnc23)c1 [kinetin]
0: line 16400, TDZ 0, kinetin 20 mg/plant, applications at V4 + V7 + V10 | line 16400, TDZ 0, kinetin 100 mg/plant, application at V7 | line 16409, TDZ 0, kinetin 20 mg/plant, applications at V4 + V7 + V10 | line 16409, TDZ 0, kinetin 100 mg/plant, application at V7 | line 16802, TDZ 0, kinetin 20 mg/plant, applications at V4 + V7 + V10 | line 16802, TDZ 0, kinetin 100 mg/plant, application at V7 | line 16825, TDZ 0, kinetin 20 mg/plant, applications at V4 + V7 + V10 | line 16825, TDZ 0, kinetin 100 mg/plant, application at V7 | line 16832, TDZ 0, kinetin 20 mg/plant, applications at V4 + V7 + V10 | line 16832, TDZ 0, kinetin 100 mg/plant, application at V7
